According to ChEMBL document CHEMBL1201862, “PubChem BioAssay data set” (2004):
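96-well plates; 48 h exposure; 5 concentrations. Endpoints by linear interpolation between flanking doses. Not reached: highest tested concentration assigned. Abbreviation: GI50, concentration required for 50% inhibition of growth.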 Calls of active or inactive are those of the source. Rule as the data show it: active = GI50 up to about 1.1 µM and inactive = higher.

What was measured:
Assay in all cases: NCI tumour cell line growth inhibition, 48 h
[1] = tested on: OVCAR-8
[2] = tested on: CAKI-1
[3] = tested on: Malme-3M
[4] = tested on: HCT-116
[5] = tested on: MOLT-4
[6] = tested on: KM12
[7] = tested on: HOP-92
[8] = tested on: SK-OV-3
[9] = tested on: NCI-H226
[10] = tested on: NCI-H522
[11] = tested on: M19-MEL
[12] = tested on: SK-MEL-28
[13] = tested on: OVCAR-4
[14] = tested on: HCC 2998
[15] = tested on: HOP-62
[16] = tested on: HT-29
[17] = tested on: ACHN
[18] = tested on: LOX IMVI

Measured: GI50

CC(C)c1ccccc1NC(=O)C(=O)Cc1nc2ccccc2s1
inactive: [1] > 100 µM | [2] > 100 µM | [3] > 100 µM | [4] > 100 µM | [5] > 100 µM | [6] > 100 µM | [7] > 100 µM | [8] > 100 µM | [9] > 100 µM | [10] > 100 µM | [11] > 100 µM | [12] > 100 µM | [13] > 100 µM | [14] > 100 µM | [15] > 100 µM | [16] > 100 µM | [17] > 100 µM

c1ccc2c(c1)cc1n2CC2CN=NC12 (configuration not stated)
inactive: [1] > 100 µM | [2] > 100 µM | [3] > 100 µM | [4] > 100 µM | [5] > 100 µM | [6] > 100 µM | [8] > 100 µM | [9] > 100 µM | [10] > 100 µM | [11] > 100 µM | [12] > 100 µM | [13] > 100 µM | [14] > 100 µM | [15] > 100 µM | [18] > 100 µM | [16] > 100 µM | [17] > 100 µM

COC(=O)/C(C#N)=C1\CCC(OC)N1 (configuration not stated)
inactive: [1] > 100 µM | [2] > 100 µM | [3] > 100 µM | [4] > 100 µM | [5] > 100 µM | [6] > 100 µM | [8] > 100 µM | [9] > 100 µM | [10] > 100 µM | [11] > 100 µM | [12] > 100 µM | [13] > 100 µM | [14] > 100 µM | [15] > 100 µM | [18] > 100 µM | [16] > 100 µM | [17] > 100 µM

COc1ccc(/C=C2\C(=O)N(C(=O)Cc3ccccc3)N=C2C)cc1OC
inactive: [1] > 100 µM | [2] > 100 µM | [3] > 100 µM | [4] > 100 µM | [5] > 100 µM | [6] > 100 µM | [9] > 100 µM | [10] > 100 µM | [11] > 100 µM | [12] > 100 µM | [13] > 100 µM | [14] > 100 µM | [15] > 100 µM | [18] > 100 µM | [16] > 100 µM | [17] > 100 µM

O=C1OC(=O)c2c1c(-c1ccccc1)nc1ccccc21
inactive: [1] > 100 µM | [2] > 100 µM | [3] > 100 µM | [4] > 100 µM | [5] > 100 µM | [6] > 100 µM | [8] > 100 µM | [9] > 100 µM | [10] > 100 µM | [11] > 100 µM | [12] > 100 µM | [14] > 100 µM | [15] > 100 µM | [18] > 100 µM | [16] > 100 µM
